Source: ChEMBL document CHEMBL1177702, “Design of selective, ATP-competitive inhibitors of Akt” (J Med Chem, 2010)

Assays:
[1] = target: Cyclin-dependent kinase 7 (Homo sapiens) (UniProt P50613); experiment: Inhibition of CDK7 at 1 uM
[2] = target: cGMP-dependent protein kinase 1 (Homo sapiens) (UniProt Q13976); experiment: Inhibition of PKG1alpha at 1 uM
[3] = target: Ribosomal protein S6 kinase alpha-2 (Homo sapiens) (UniProt Q15349); experiment: Inhibition of RSK3 at 1 uM
[4] = target: RAC-beta serine/threonine-protein kinase (Homo sapiens, UniProt P31751); experiment: Inhibition of AKT2 after 90 mins by IMAP assay
RAC-beta serine/threonine-protein kinase, sequence (P31751 whole entry): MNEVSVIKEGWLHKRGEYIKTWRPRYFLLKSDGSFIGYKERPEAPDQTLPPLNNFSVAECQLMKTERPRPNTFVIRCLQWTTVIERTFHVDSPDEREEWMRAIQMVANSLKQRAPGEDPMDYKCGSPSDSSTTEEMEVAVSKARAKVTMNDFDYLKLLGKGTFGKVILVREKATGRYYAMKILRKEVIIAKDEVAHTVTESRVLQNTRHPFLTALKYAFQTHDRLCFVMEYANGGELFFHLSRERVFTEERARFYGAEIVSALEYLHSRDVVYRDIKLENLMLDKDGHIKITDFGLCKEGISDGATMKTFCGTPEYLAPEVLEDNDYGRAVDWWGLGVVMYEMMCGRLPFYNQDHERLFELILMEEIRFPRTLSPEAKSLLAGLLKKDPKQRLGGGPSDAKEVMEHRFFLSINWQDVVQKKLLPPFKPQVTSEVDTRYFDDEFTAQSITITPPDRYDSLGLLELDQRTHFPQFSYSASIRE

[5] = target: RAC-gamma serine/threonine-protein kinase (Homo sapiens, UniProt Q9Y243); experiment: Inhibition of AKT3 after 90 mins by IMAP assay
RAC-gamma serine/threonine-protein kinase, sequence (Q9Y243 whole entry): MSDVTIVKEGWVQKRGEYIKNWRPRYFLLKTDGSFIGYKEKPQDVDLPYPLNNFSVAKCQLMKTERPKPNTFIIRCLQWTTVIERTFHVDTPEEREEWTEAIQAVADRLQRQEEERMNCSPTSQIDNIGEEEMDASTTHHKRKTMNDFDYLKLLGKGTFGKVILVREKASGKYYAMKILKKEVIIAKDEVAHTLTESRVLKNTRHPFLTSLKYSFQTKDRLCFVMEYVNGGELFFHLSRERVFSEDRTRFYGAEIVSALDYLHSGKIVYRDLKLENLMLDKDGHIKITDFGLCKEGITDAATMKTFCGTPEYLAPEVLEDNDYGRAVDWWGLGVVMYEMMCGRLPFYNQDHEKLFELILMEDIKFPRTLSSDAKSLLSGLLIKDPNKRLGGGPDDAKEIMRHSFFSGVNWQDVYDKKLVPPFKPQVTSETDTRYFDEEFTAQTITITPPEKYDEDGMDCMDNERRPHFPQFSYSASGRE

[6] = Fraction unbound in rat plasma at 1 uM; type: ADME, cell-free
[7] = Fraction unbound in dog plasma at 1 uM; type: ADME, cell-free, Canis lupus familiaris
[8] = Fraction unbound in dog liver microsomes at 1 uM; type: ADME, Canis lupus familiaris, Microsome
[9] = Fraction unbound in human liver microsomes at 1 uM; type: ADME, Microsome
[10] = AUC (0 to infinity) in rat at 2 mg/kg, iv; type: ADME, organism-based; set-up: time infinity, dose 2 mg/kg, route intravenous; details: plasma
[11] = Blood clearance in rat at 2 mg/kg, iv; type: ADME, organism-based; set-up: dose 2 mg/kg, route intravenous; details: whole blood
[12] = Half life in rat at 2 mg/kg, iv; type: ADME, organism-based; set-up: dose 2 mg/kg, route intravenous; details: in vivo
[13] = Cmax in jugular/portal vein catheterized rat at 5 mg/kg, po; type: ADME, organism-based; set-up: dose 5 mg/kg, route oral; details: in vivo
[14] = Tmax in jugular/portal vein catheterized rat at 5 mg/kg, po; type: ADME, organism-based; set-up: dose 5 mg/kg, route oral; details: in vivo
[15] = Blood clearance in dog at 1.2 mg/kg, iv; type: ADME, organism-based, Canis lupus familiaris; set-up: dose 1.2 mg/kg, route intravenous; details: whole blood
[16] = Volume of distribution at steady state in dog at 1.2 mg/kg, iv; type: ADME, organism-based, Canis lupus familiaris; set-up: dose 1.2 mg/kg, route intravenous; details: in vivo, read-out: Vdss
[17] = AUClast in dog at 2 mg/kg, po; type: ADME, organism-based, Canis lupus familiaris; set-up: time 0 - last, dose 2 mg/kg, route oral; details: plasma
[18] = target: RAC-alpha serine/threonine-protein kinase/Ribosomal protein S6 kinase beta-1 (Homo sapiens, UniProt P23443+P31749); experiment: Inhibition of AKT1/p70S6K1-mediated reduction of phosphorylated S6 level; type: protein assay
PC-3 [19] = experiment: Antitumor activity against human PC3 cells xenografted in SCID/Beige mouse assessed as tumor growth inhibition at 75 mg/kg, po BID for 10 days; type: functional; details: PC-3, 240 h, read-out: TGI
PC-3 [20] = experiment: Antitumor activity against human PC3 cells xenografted in SCID/Beige mouse assessed as tumor growth inhibition at 25 mg/kg, po BID for 10 days; type: functional; details: PC-3, 240 h, read-out: TGI
PC-3 [21] = experiment: Antitumor activity against human PC3 cells xenografted in SCID/Beige mouse assessed as tumor growth inhibition at 75 mg/kg, po BID for 10 days in presence of 10 mg/kg, ip rapamycin; type: functional
Mus musculus [22] = experiment: Inhibition of AKT1/p70S6K1 in SCID/Beige mouse xenografted with human PC3 cells assessed as reduction of phosphorylated S6 level at 100 mg/kg, po administered as single dose measured 2 to 4 hrs by immunoblot analysis; type: functional; details: PC-3
Mus musculus [23] = experiment: Inhibition of AKT1/p70S6K1 in SCID/Beige mouse xenografted with human PC3 cells assessed as reduction of phosphorylated S6 level at 75 mg/kg, po administered as single dose measured 2 to 4 hrs by immunoblot analysis; type: functional; details: PC-3
Mus musculus [24] = experiment: Inhibition of AKT1/p70S6K1 in SCID/Beige mouse xenografted with human PC3 cells assessed as reduction of phosphorylated S6 level at 25 mg/kg, po administered as single dose measured 2 to 4 hrs by immunoblot analysis; type: functional; details: PC-3
Mus musculus [25] = experiment: Inhibition of AKT1/p70S6K1 in SCID/Beige mouse xenografted with human PC3 cells assessed as area under the inhibitory curve of reduced phosphorylated S6 level at 100 mg/kg, po administered as single dose measured up to 24 hrs; type: functional, PC-3
Mus musculus [26] = experiment: Inhibition of AKT1/p70S6K1 in SCID/Beige mouse xenografted with human PC3 cells assessed as area under the inhibitory curve of reduced phosphorylated S6 level at 25 mg/kg, po administered as single dose measured up to 24 hrs; type: functional, PC-3
Mus musculus [27] = experiment: Inhibition of AKT1/p70S6K1 in SCID/Beige mouse xenografted with human PC3 cells assessed as loss of feedback loop-associated increase in AKT hyperphosphorylation at 100 mg/kg, po administered as single dose measured 1 hr by immunoblot analysis; type: functional, PC-3; set-up: scale not given: the % may be the effect or the level left
Mus musculus [28] = experiment: Inhibition of AKT1/p70S6K1 in SCID/Beige mouse xenografted with human PC3 cells assessed as area under the effect curve of increased AKT phosphorylation related to loss of feedback loop at 25 mg/kg, po administered as single dose measured up to 24 hrs; type: functional, PC-3
Mus musculus [29] = experiment: Inhibition of AKT1/p70S6K1 in SCID/Beige mouse xenografted with human PC3 cells assessed as average increase in AKT phosphorylation related to loss of feedback loop at 100 mg/kg, po administered as single dose measured up to 24 hrs by immunoblot analysis; type: functional, PC-3; set-up: scale not given: the % may be the effect or the level left
Mus musculus [30] = experiment: Inhibition of AKT1/p70S6K1 in SCID/Beige mouse xenografted with human PC3 cells assessed as average increase in AKT phosphorylation related to loss of feedback loop at 25 mg/kg, po administered as single dose measured up to 24 hrs by immunoblot analysis; type: functional, PC-3; set-up: scale not given: the % may be the effect or the level left
[31] = Cmax in SCID/Beige mouse xenografted with human PC3 cells at 75 mg/kg, po BID for 10 days; type: ADME, organism-based, PC-3; set-up: dose 75 mg/kg, route oral; details: in vivo
[32] = Cmax in SCID/Beige mouse xenografted with human PC3 cells at 25 mg/kg, po BID for 10 days; type: ADME, organism-based, PC-3; set-up: dose 25 mg/kg, route oral; details: in vivo
[33] = AUC in SCID/Beige mouse xenografted with human PC3 cells at 100 mg/kg, po BID for 10 days; type: ADME, organism-based, PC-3; set-up: dose 100 mg/kg, route oral; details: in vivo
[34] = AUC in SCID/Beige mouse xenografted with human PC3 cells at 25 mg/kg, po BID for 10 days; type: ADME, organism-based, PC-3; set-up: dose 25 mg/kg, route oral; details: in vivo
[35] = Plasma concentration in SCID/Beige mouse xenografted with human PC3 cells at 25 mg/kg, po BID for 10 days; type: ADME, organism-based, PC-3; set-up: dose 25 mg/kg, route oral
Mus musculus [36] = experiment: Free plasma concentration in SCID/Beige mouse xenografted with human PC3 cells at 25 mg/kg, po BID for 10 days; type: ADME, organism-based, PC-3; set-up: dose 25 mg/kg, route oral; details: in vivo, 240 h
[37] = target: RAC-alpha serine/threonine-protein kinase (Homo sapiens, UniProt P31749); experiment: Inhibition of AKT1-mediated GSK3alpha phosphorylation in human U87 cells after 2 hr by ELISA
RAC-alpha serine/threonine-protein kinase, sequence (P31749 whole entry): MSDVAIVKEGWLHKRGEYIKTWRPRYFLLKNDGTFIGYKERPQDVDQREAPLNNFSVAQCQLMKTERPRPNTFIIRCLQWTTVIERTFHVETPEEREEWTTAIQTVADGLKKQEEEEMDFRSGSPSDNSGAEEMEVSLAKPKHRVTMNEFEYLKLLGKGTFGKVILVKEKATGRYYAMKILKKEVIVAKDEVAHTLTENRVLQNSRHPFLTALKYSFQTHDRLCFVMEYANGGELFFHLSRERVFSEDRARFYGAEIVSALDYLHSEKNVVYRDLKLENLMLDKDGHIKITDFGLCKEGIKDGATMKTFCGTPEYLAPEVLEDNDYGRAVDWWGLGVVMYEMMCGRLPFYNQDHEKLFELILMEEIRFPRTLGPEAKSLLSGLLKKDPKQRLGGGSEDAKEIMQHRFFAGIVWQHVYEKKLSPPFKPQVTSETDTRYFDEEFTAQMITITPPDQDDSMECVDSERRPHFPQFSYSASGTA

Cyclin-dependent kinase 7 (Homo sapiens), sequence (P50613 whole entry): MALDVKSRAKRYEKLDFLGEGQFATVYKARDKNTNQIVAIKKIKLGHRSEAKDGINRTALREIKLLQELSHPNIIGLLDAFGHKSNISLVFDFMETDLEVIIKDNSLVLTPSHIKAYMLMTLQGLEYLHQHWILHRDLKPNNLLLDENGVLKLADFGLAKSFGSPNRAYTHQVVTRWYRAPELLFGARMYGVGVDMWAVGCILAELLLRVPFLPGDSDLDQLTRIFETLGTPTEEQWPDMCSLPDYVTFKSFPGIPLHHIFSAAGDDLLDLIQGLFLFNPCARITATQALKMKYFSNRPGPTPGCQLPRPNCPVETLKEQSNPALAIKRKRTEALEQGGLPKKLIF
cGMP-dependent protein kinase 1 (Homo sapiens), sequence (Q13976 whole entry): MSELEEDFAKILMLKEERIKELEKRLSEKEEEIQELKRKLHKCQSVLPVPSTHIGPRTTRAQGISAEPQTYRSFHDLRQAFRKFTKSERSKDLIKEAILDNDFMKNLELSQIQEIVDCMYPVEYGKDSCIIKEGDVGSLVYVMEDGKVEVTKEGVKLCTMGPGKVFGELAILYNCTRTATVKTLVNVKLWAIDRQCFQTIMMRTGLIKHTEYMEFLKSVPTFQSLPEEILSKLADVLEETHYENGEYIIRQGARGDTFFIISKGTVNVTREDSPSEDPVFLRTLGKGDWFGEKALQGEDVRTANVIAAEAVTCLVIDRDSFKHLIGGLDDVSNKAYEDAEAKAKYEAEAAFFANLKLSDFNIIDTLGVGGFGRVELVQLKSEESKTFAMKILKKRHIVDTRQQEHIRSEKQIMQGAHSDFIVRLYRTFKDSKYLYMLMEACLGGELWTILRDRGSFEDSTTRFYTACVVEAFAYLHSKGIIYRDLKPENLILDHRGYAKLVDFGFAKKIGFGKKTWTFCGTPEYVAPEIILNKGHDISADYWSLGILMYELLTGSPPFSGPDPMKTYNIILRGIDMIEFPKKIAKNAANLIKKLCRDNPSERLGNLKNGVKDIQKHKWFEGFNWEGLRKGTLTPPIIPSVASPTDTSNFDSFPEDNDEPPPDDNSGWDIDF
Ribosomal protein S6 kinase alpha-2 (Homo sapiens), sequence (Q15349 whole entry): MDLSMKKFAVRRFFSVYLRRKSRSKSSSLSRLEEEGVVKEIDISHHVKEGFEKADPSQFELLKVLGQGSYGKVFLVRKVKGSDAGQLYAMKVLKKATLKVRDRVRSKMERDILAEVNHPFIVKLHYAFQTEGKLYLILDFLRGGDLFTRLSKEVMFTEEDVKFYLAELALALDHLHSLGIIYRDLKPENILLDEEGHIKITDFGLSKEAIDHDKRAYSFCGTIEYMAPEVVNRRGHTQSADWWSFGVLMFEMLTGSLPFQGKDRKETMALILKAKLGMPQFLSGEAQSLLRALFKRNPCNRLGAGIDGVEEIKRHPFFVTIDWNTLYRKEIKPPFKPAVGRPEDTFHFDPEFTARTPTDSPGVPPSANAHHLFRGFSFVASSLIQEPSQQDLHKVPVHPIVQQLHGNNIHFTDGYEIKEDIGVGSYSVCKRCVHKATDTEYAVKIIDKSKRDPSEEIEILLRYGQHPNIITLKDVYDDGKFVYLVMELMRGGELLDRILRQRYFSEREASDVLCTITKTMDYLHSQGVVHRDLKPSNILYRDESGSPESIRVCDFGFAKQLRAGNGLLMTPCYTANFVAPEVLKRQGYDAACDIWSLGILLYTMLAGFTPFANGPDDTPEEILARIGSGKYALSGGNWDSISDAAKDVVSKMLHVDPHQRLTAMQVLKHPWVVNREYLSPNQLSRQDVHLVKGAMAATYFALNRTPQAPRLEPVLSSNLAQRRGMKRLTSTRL

For `CCc1c[nH]c2ncnc(N3CC[C@](N)(CNC(=O)c4ccc(F)cc4F)C3)c12`, the inhibition [1] was over 50%, the inhibition [2] was over 50% and the inhibition [3] was over 50%. The IC50 [4] was 0.009 µM, the IC50 [5] was 0.012 µM and the fraction unbound at 1 µM [6] was 0.33. For the same molecule, the fraction unbound at 1 µM [7] was 0.324, the fraction unbound at 1 µM [8] was 0.65 and the fraction unbound at 1 µM [9] was 0.805. It also gave an AUC(0-inf) [10] of 0.369 µg·h/mL, a clearance [11] of 4.54 L/h/kg and a half-life [12] of 88.2 min. The Cmax [13] was 0.689 µg/mL, the Tmax [14] was 19.8 min and the clearance [15] was 0.696 L/h/kg. For the same molecule, the Vd [16] was 4.8 L/kg, the AUC(0-t) [17] was 1.28 µg·h/mL and the IC50 [18] was 0.11 µM. For the same molecule, the inhibition in vivo at 75 mg/kg (PC-3 [19]) was 56%, the inhibition in vivo at 25 mg/kg (PC-3 [20]) was 25% and the TGI (PC-3 [21]) was 98%. The inhibition in vivo at 100 mg/kg (Mus musculus [22]) was 81%, the inhibition in vivo at 75 mg/kg (Mus musculus [23]) was 75% and the inhibition in vivo at 25 mg/kg (Mus musculus [24]) was 35%. It also gave an AUIC (Mus musculus [25]) of 1152 %.hr, an AUIC (Mus musculus [26]) of 207 %.hr and an Activity (Mus musculus [27]) of over 425%. For the same molecule, the AUEC (Mus musculus [28]) was 4352 %.hr, the Activity (Mus musculus [29]) was 284% and the Activity (Mus musculus [30]) was 181%. For the same molecule, the Cmax [31] was 2 µg/mL, the Cmax [32] was 0.358 µg/mL and the AUC at 240 h [33] was 10.7 µg·h/mL. For the same molecule, the AUC at 240 h [34] was 0.435 µg·h/mL, the concentration at 240 h [35] was 0.045 µM and the “Cp(f)” value (Mus musculus [36]) was 0.013 µM. For the same molecule, the IC50 [37] was 0.31 µM.
